Legend:
WT and I38T mutants = conditions: cited from earlier work
[1] = molecular target: T1, E23K mutant PAN endonuclease (Influenza A virus, UniProt C3W5S0, DEL52-63/E23K/E64G); format: binding, influenza A/California/04/2009(H1N1)
[2] = molecular target: T1, E23K mutant PAN endonuclease; format: binding, influenza A/California/04/2009(H1N1); remark: listed apart in the source
WT PAN endonuclease [3] = molecular target: T2, WT PAN endonuclease (Influenza A virus, UniProt C3W5S0, DEL52-63/E64G); format: binding, influenza A/California/04/2009(H1N1); conditions: 200 µM
[4] = molecular target: A36V mutant PAN endonuclease (Influenza A virus, UniProt C3W5S0, A36V/DEL52-63/E64G); format: binding, influenza A/California/04/2009(H1N1); conditions: 200 µM
[5] = molecular target: T3, I38T mutant PAN endonuclease (Influenza A virus, UniProt C3W5S0, DEL52-63/E64G/I38T); format: binding, influenza A/California/04/2009(H1N1)
[6] = molecular target: T3, I38T mutant PAN endonuclease; format: binding, influenza A/California/04/2009(H1N1); remark: listed apart in the source
I38T mutant = conditions: cited from earlier work
WT PAN endonuclease [7] = molecular target: T2, WT PAN endonuclease; format: binding, influenza A/California/04/2009(H1N1)

In the case of baloxavir acid [BXA], the “ΔTM melting value between the WT and I38T mutants” value (WT and I38T mutants) is listed as 8-10 °C, the Kd [1] is listed as 26.1 ± 11.2 µM and the “difference in ΔTM compared to WT (lower)” value [2] is listed as under 3 °C. For the same substance, the ΔTM ([2]; 200 µM) was 19.8 ±0.06 °C, the ΔTM (WT PAN endonuclease [3]) was 22.9 ±0.08 °C and the ΔTM [4] was 21.7 ±0.11 °C. The “difference in ΔTM compared to WT (lower)” value [5] was ~ 8 °C, the ΔTM ([5]; 200 µM) was 14.9 ±0.04 °C and the Kd [6] was 9.3 ± 4.2 µM. For the same substance, the reduction in affinity (I38T mutant) was 30- to 50 fold and the Kd (WT PAN endonuclease [7]) was 343 ± 106 nM.

Reference: PMC10851415 (Biochemistry, 2024)
